Like-named read-outs stand apart in the source and are kept apart here.
How the values were obtained:
[1] = tested on: adrenal chromaffin and human neuroblastoma cells; conditions: 100 to 300 nM; Aβ1-40 10 μM; cited from earlier work
Aβ1-40 = Aβ1-40 (Homo sapiens, UniProt P05067); conditions: 500 nM; 50 μM Aβ1-40; cited from earlier work
[2] = tested on: mice transgenic for an anti-NGF (nerve growth factor) antibody; conditions: 3.5 mg/kg/day, cited from earlier work
[3] = tested on: mild-to-moderate AD patients; conditions: cited from earlier work
MCI patients = conditions: cited from earlier work
CSF Aβ = conditions: in vivo; cited from earlier work
β-secretase = conditions: 300 nM; cited from earlier work
[4] = tested on: serum tumor necrosis factor (TNF); conditions: cited from earlier work
[5] = tested on: mild-to-moderate AD patients; assay: two-year randomized trial of galantamine and placebo; type: in vivo, human; conditions: 24 months
[6] = tested on: mice transgenic for a single, different Swedish APP mutation; conditions: ten days at 2 mg/kg/day; cited from earlier work
APdE9 mice = conditions: cited from earlier work; for insoluble Aβ in mouse brains: 2 months
[7] = tested on: Primary rat cultured cortical neurons; conditions: cited from earlier work
[8] = human patients; cited from earlier work
neuroblastoma cells = conditions: 300 nM; cited from earlier work
α7 nicotinic receptors = biological target: T1, α7 nicotinic receptors (Rattus norvegicus, UniProt Q05941); conditions: 1 μM; 1.5 mM choline; cited from earlier work
T1 construct: Primary cultured rat neurons can be depolarized by the application of 1.5 mM choline; endogenous in cells; host or cells: primary cultured rat neurons
T1 sequence (Q05941 23-502): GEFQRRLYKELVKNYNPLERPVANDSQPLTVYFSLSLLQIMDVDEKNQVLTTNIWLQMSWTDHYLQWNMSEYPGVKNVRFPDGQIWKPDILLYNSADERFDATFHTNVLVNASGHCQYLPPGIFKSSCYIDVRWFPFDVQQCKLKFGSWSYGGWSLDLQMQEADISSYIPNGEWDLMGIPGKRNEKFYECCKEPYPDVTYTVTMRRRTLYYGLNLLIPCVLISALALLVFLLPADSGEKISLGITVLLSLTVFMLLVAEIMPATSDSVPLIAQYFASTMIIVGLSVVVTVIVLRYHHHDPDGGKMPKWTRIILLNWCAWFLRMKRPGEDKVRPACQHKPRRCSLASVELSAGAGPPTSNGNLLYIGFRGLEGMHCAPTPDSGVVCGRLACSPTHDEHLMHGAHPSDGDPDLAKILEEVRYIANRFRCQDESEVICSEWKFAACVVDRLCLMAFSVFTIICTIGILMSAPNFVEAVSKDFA

[9] = tested on: Mice with lesions of the nucleus basalis magnocellularis (nBm); conditions: cited from earlier work

Sequence of Aβ1-40 (P05067 672-711 limits assumed): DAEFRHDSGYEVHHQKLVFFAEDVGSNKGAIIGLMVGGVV

SMILES: COc1ccc2c3c1O[C@H]1C[C@@H](O)C=C[C@@]31CCN(C)C2 [galantamine, (4aS,6R,8aS)-5,6,9,10,11,12-hexahydro-3-methoxy-11-methyl-4aH-[1]benzofuro[3a,3,2-ef][2]benzazepin-6-ol]
- Aβ1-40-induced apoptosis [1]: reduced Aβ1-40-induced apoptosis
- aggregation of Aβ1-40 (Aβ1-40): reduce aggregation
- intracellular Aβ deposits ([2]; after 15 days): decreased intracellular Aβ deposits
- ChAT activity [2]: restored ChAT activity
- MMSE change ([3]; 6 months): 0.15
- MMSE difference versus placebo ([3]; 6 months): 0.43
- Disability Assessment in Dementia change ([3]; 12 months): −4.55
- Disability Assessment in Dementia difference versus placebo ([3]; 12 months): 1.95
- MMSE deterioration ([3]; 24 months, patients receiving memantine removed): 1.12 points
- Disability Assessment in Dementia change ([3]; 24 months): −8.16
- Disability Assessment in Dementia difference versus placebo ([3]; 24 months): 2.65
- MMSE change ([3]; 24 months): −1.41
- MMSE difference versus placebo ([3]; 24 months): 0.73
- mortality less than in placebo patients ([3]; in vivo): 42%
- deaths (MCI patients; 24-month study period, all patients entered): 34
- reduction of global atrophy (serial MRIs) versus placebo (MCI patients; subpopulation of two-year MCI study): 33%
- deaths (MCI patients; within 30 days of stopping galantamine): 14
- effect on CSF Aβ (CSF Aβ): does not lower CSF Aβ
- activity of β-secretase (β-secretase): decreased
- serum tumor necrosis factor (TNF) ([4]; 1 mg/kg, administered prior to endotoxin): significantly reduces serum tumor necrosis factor (TNF)
- dose at which survival is improved significantly ([4]; endotoxin): 4 mg/kg
- Disability Assessment in Dementia percent difference versus placebo [5]: 24%
- MMSE percent difference versus placebo [5]: 34%
- reduction of MMSE deterioration versus placebo ([5]; patients receiving memantine removed): 48%
- insoluble or soluble Aβ species [6]: did not reduce insoluble or soluble Aβ species
- synaptophysin levels [6]: significantly raise synaptophysin levels
- insoluble Aβ in mouse brains (APdE9 mice; 1 mg/kg/day): significantly reduced insoluble (fibrillar) Aβ1-40
- insoluble Aβ in mouse brains (APdE9 mice; 5 mg/kg/day): reduced both Aβ1-40 and Aβ1-42
- soluble Aβ species (APdE9 mice; 1 or 5 mg/kg/day): Neither dose significantly affected soluble Aβ species
- protection of neurons against Aβ plus glutamate ([7]; 0.1 μM): intermediate effect which is not statistically significant
- protection of neurons against Aβ plus glutamate ([7]; 1.0 μM): protects neurons against Aβ plus glutamate
- plasma half-life [8]: about 7 hours
- release of Aβ1-40 and Aβ1-42 (neuroblastoma cells): decreased
- enhancement of the depolarization caused by choline (α7 nicotinic receptors): 20.6±4.2%
- additional time remaining in the lighted compartment versus saline ([9]; given during training, optimal performance): about 125 seconds
- best dose for memory enhancement ([9]; passive avoidance): 3 mg/kg
